What all share (assay type): in vivo, mouse
Series [1] has as its system retinal ganglion cells and amacrine cells. Kind of series: NMDA-induced cell death, anti-HuC/D immunohistochemistry in the ganglion cell layer. To be noted: 36 hours post-NMDA injection, 200 nmol NMDA intravitreal. Here is the method:
(§1) Adult mice at 4 weeks of age were anesthetized with an intraperitoneal injection of ketamine (50 mg/kg mouse body weight) and xylazine (5 mg/kg mouse body weight). Intravitreal injection was performed using a microsyringe equipped with a 33 gauge needle. The tip of the needle was passed through the sclera, at the equator and next to the dorsal limbus of the eye, into the vitreous cavity. Injection volume is 1 μl per eye for AAVs or other chemicals including NMDA (Acros Organics, 100 mM) and XAV939 (Sigma, 10 μM).
Retinas were fixed with 4% paraformaldehyde in PBS for 30 minutes at room temperature, followed by overnight incubation at 4° C. in PBS containing 30% sucrose. […]
To examine MG proliferation induced by neurotoxic injury in the adult mammalian retina, 200 nmol was injected NMDA into the vitreous chamber of the mouse retina at 4 weeks of age. […] NMDA-induced cell proliferation was quantified by scoring the number of EdU^+ cells/mm^2 in retinal flatmount preparations. […]
To examine the ability of inhibition of Wnt signaling to suppress NMDA-induced MG proliferation, NMDA was co-injected with XAV939, a selective Wnt signaling antagonist (Huang et al., Nature, 2009, 461:614-620), and the number of EdU^+ cells per mm^2 in retinal flatmount preparations was quantified 60 hours post-injection, when the maximum number of EdU^+ cells were detected (FIG. 2A). […]

For series [2], the system named is Wnt signaling pathway. In words: quantitative PCR of Wnt genes, Wnt antagonists and Wnt target genes after NMDA injury. Here is the method: Total RNA was extracted from retinas using TRIzol (Invitrogen, Grand Island, N.Y.) according to the manufacture's protocol. Reverse transcription (RT) was then performed at 42° C. for 2 hours in a volume of 20 μl containing 0.5 μg of oligo(dT), 1×RT buffer, 0.5 mM each deoxyribonucleotide triphosphate, 0.1 mM dithiothreitol, and 200 U of Superscript II reverse transcriptase (Invitrogen, Grand Island, N.Y.). Real-Time quantitative PCR (qPCR) was performed in triplicate with SsoFast™ EvaGreen supermix (Bio-Rad, Hercules, Calif.) using an iCycler real-time PCR detection system (Bio-Rad, Hercules, Calif.). The amplification protocol was 30 seconds at 94° C., 30 seconds at 56° C., and 30 seconds at 72° C., with a signal detection period of 7 seconds at 80° C. A melt curve analysis was performed at the end of the reaction to check the reaction specificity. Results were obtained after normalization to the expression level of the housekeeping gene, B-actin. All experiments were performed at least twice to ensure repeatable results.
To examine whether Wnt signaling is activated by NMDA-induced neurotoxic injury, quantitative PCR was performed to assay the RNA levels of Wnt genes at 3, 6, 12, 18, 24, 36, and 48 hours post-NMDA injection, relative to the PBS injected retina as a control. […] The upregulation of Wnt genes and a concomitant downregulation of WIF-1 and Dkk1 would predict activation of the canonical Wnt/β-catenin signaling pathway. Indeed, 24 hours post-NMDA injection, a 3.4-fold upregulation of CyclinD1 (Ccnd1, FIG. 2D), a target gene of the Wnt signaling pathway (Shtutman et al., Proc Natl Acad Sci USA, 1999, 96:5522-5527; Tetsu and McCormick, Nature, 1999, 398:422-426) and key regulator of the cell cycle progression from the G1 to S phase (Resnitzky et al., Mol Cell Biol. 1994, 14:1669-1679), was detected.

Series [3] relates to Müller glial cells (MGs). In words: NMDA-induced MG proliferation, EdU incorporation in retinal flatmount preparations. As to the method: as §1
EdU solution (1 ul) was intravitreally injected into the vitreous chamber at the concentration of 1 mg/ml. Analysis of EdU incorporation was performed using Click-iT EdU Kit (Invitrogen, Grand Island, N.Y.). In brief, retinal cryostat sections or flatmount preparations were washed in PBS first for 10 min and then washed twice in PBS containing 3% BSA, followed by permeabilization in PBS containing 0.5% Triton X-100 for 20 min. After washing twice in PBS containing 3% BSA, EdU detection components were resuspended according to manufacturer's instructions and applied directly to retinal samples. The solution for each EdU reaction has a total volume of 250 μl composed of 215 μl 1× Click-iT reaction buffer, 10 μl CuSO4, 0.6 μl Alexa Fluor azide, and 25 μl 1× Reaction buffer additive. After incubation in the reaction solution for 30 minutes at room temperature, samples were washed with PBS and mounted with Fluoromount-G for detection.
To examine MG proliferation induced by neurotoxic injury in the adult mammalian retina, 200 nmol was injected NMDA into the vitreous chamber of the mouse retina at 4 weeks of age. The same dosage of NMDA was previously used to introduce retinal injury leading to MG proliferation in adult rat and mouse retina (Karl et al., Proc Natl Acad Sci USA, 2008, 105:19508-19513; Ooto et al., Proc Natl Acad Sci USA, 2004, 101:13654-13659). Anti-HuC/D immunohistochemistry was used to assay the time course of NMDA-induced cell death in the ganglion cell layer (GCL). […] To assay cell proliferation, 1 μl of 1 mg/ml of EdU, a nucleoside analog of thymidine that is incorporated into DNA during active DNA synthesis, was injected into the vitreous chamber 5 hours before tissue collection at 24, 36, 48, 60, 72, and 96 hours post-NMDA injection. NMDA-induced cell proliferation was quantified by scoring the number of EdU^+ cells/mm^2 in retinal flatmount preparations. A small number (4.7±0.8) of EdU^−1 cells appeared 36 hours post-NMDA injection. The number of EdU^−1 cells continued to increase, reaching 223.3±8.3 and 264.5±8.4 at 48 and 60 hours, respectively, before it was reduced to 5.8±1.1 at 72 hours post-NMDA injection (FIG. 2A). The EdU^−1 cells were also immunoreactive for CyclinD3 and p27^kip1 (FIG. 2B), MG-specific nuclear antigens (Dyer and Cepko, Nat Neurosci. 2000, 3:873-880).
To examine the ability of inhibition of Wnt signaling to suppress NMDA-induced MG proliferation, NMDA was co-injected with XAV939, a selective Wnt signaling antagonist (Huang et al., Nature, 2009, 461:614-620), and the number of EdU^+ cells per mm^2 in retinal flatmount preparations was quantified 60 hours post-injection, when the maximum number of EdU^+ cells were detected (FIG. 2A). […] To assay whether XAV939 treatment affects NMDA-induced retinal damage, the number of HuC/D+ cells was quantified in the GCL at 60 hours post-injection.
Lin28 is a direct transcriptional target of Wnt/β-catenin signaling. […]

For `CN[C@H](CC(=O)O)C(=O)O` [NMDA], the “HuC/D+ cells remaining” value in series [1] is given as approximately 45%. Moreover, in series [2] (6-24 hours post-NMDA injection, relative to PBS injected retina), the “RNA levels for Wnt genes (Wnt2b, Wnt8a, Wnt8b, Wnt9a, Wnt10a), upregulation” value is on record as “at least 3 fold”. Moreover, the “RNA levels for WIF-1” value in series [2] (12 hours post-NMDA injection) is reported as 1.6±0.2 % of the control. In series [2] (24 hours post-NMDA injection), the “RNA levels for Dkk1” value is 13.2±0.6 % of the control. The “upregulation of CyclinD1 (Ccnd1)” value in series [2] (24 hours post-NMDA injection) stood at 3.4 fold. The “RNA levels of Lef1 and Axin2” value in series [2] (post-NMDA injection) was “significant upregulation”. The “number of EdU+ cells/mm^2” value was found to be 4.7±0.8 cells/mm^2 in series [3] (36 hours post-NMDA injection), 223.3±8.3 cells/mm^2 in series [3] (48 hours post-NMDA injection), 264.5±8.4 cells/mm^2 in series [3] (60 hours post-NMDA injection) and 5.8±1.1 cells/mm^2 in series [3] (72 hours post-NMDA injection).

As for `Oc1nc(-c2ccc(C(F)(F)F)cc2)nc2c1CSCC2` [XAV939], in series [3] (XAV939 co-injected with NMDA, 60 hours post-injection), the “number of EdU+ cells per mm^2 versus NMDA injection alone” value is on record as “significantly reduced”.

The values are drawn from US20220040236A1, “COMPOSITIONS AND METHODS OF TREATMENT OF VISION LOSS THROUGH GENERATION OF ROD PHOTORECEPTORS FROM MÜLLER GLIAL CELLS” (ICAHN SCHOOL OF MEDICINE AT MOUNT SINAI, priority 2018, published 2022).
